# Assay results as given in patent publication US9156829B2, “Cycloalkyl and heterocycloalkyl compounds as orexin receptor antagonists” (Takeda Pharmaceutical Company Limited, priority 2014, dated 2015).
# What was measured:
# human orexin receptor 1 = human orexin receptor 1 (Homo sapiens (Human), UniProt O43613); assay: Orexin antagonist activity, intracellular calcium FLIPR assay, RBL-2H3 cells expressing human orexin receptor 1; type: cell-based; settings: RBL-2H3 cells stably expressing human orexin receptor 1; orexin-A at approx. 80% maximal response; compound added 15 minutes before; read-out: Human Orexin1R IC50
# human orexin receptor 2 = human orexin receptor 2 (Homo sapiens (Human), UniProt O43614); assay: Orexin antagonist activity, intracellular calcium FLIPR assay, RBL-2H3 cells expressing human orexin receptor 2; type: cell-based; settings: RBL-2H3 cells stably expressing human orexin receptor 2; orexin-A at approx. 80% maximal response; compound added 15 minutes before; read-out: Human Orexin2R IC50
# Sequence of human orexin receptor 2 (O43614 whole entry): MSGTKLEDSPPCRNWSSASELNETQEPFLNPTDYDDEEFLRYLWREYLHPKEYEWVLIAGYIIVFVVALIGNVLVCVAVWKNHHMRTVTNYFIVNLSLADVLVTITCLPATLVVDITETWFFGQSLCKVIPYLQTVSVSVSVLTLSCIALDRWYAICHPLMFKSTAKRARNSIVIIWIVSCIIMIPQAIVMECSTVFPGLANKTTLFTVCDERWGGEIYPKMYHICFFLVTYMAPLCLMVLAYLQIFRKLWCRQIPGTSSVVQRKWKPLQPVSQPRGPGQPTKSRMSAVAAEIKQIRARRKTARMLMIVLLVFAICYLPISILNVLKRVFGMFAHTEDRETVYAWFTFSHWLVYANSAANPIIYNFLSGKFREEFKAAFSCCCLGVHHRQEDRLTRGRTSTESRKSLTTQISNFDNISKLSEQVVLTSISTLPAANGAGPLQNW
# Sequence of human orexin receptor 1 (O43613 whole entry): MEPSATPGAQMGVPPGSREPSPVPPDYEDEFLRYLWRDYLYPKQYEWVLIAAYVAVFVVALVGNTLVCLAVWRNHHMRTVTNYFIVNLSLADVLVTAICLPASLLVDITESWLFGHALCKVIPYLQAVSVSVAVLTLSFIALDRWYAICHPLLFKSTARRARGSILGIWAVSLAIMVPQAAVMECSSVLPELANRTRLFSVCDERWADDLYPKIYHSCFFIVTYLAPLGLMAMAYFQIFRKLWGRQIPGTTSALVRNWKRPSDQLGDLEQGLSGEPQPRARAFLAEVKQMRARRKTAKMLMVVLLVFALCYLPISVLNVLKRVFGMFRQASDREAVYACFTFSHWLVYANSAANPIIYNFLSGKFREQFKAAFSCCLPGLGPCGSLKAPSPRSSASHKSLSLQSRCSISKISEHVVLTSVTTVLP
IC50 (human orexin receptor 1),IC50 (human orexin receptor 2),Compound
0.029 µM,> 10 µM,"CCc1nc(C(F)(F)F)cnc1N[C@H]1CCC[C@@H]1NC(=O)c1ccccc1-c1ncccn1 [Example 151, N-[(1S,2S)-2-{[3-Ethyl-5-(trifluoromethyl)pyrazin-2-yl]amino}cyclopentyl]-2-(pyrimidin-2-yl)benzamide]"
0.066 µM,> 10 µM,"CC1(Nc2ncc(C(F)(F)F)cn2)CCCC1NC(=O)c1ncccc1-c1ncccn1 (stereo not shown) [Example 153, N-(2-Methyl-2-{[5-(trifluoromethyl)pyrimidin-2-yl]amino}cyclopentyl)-3-(pyrimidin-2-yl)pyridine-2-carboxamide]"
0.008 µM,> 10 µM,"CC1(Nc2ccc(C(F)(F)F)cn2)CCCC1NC(=O)c1ncccc1-n1nccn1 (stereo not shown) [Example 155, N-(2-Methyl-2-{[5-(trifluoromethyl)pyridin-2-yl]amino}cyclopentyl)-3-(2H-1,2,3-triazol-2-yl)pyridine-2-carboxamide]"
0.011 µM,> 10 µM,"CC1(Nc2ccc(C(F)(F)F)cn2)CCCC1NC(=O)c1ncccc1-c1ncccn1 (stereo not shown) [Example 156, N-(2-Methyl-2-{[5-(trifluoromethyl)pyridin-2-yl]amino}cyclopentyl)-3-(pyrimidin-2-yl)pyridine-2-carboxamide]"
0.236 µM,> 10 µM,"O=C(N[C@H]1CC(F)(F)C[C@@H]1Nc1ccc(OC(F)F)cn1)c1ccccc1-n1nccn1 [Example 157, N-[(1S,2S)-2-{[5-(Difluoromethoxy)pyridin-2-yl]amino}-4,4-difluorocyclopentyl]-2-(2H-1,2,3-triazol-2-yl)benzamide]"
0.005 µM,> 10 µM,"CCc1nc(C(F)(F)F)cnc1N[C@H]1CCC[C@@H]1NC(=O)c1cc(F)ccc1-c1ncccn1 [Example 158, N-[(1S,2S)-2-{[3-Ethyl-5-(trifluoromethyl)pyrazin-2-yl]amino}cyclopentyl]-5-fluoro-2-(pyrimidin-2-yl)benzamide]"
0.025 µM,> 10 µM,"Cc1nc(C(F)(F)F)cnc1N[C@H]1CCC[C@@H]1NC(=O)c1ncccc1-c1ncccn1 [Example 159, N-[(1S,2S)-2-{[3-Methyl-5-(trifluoromethyl)pyrazin-2-yl]amino}cyclopentyl]-3-(pyrimidin-2-yl)pyridine-2-carboxamide]"
0.029 µM,> 10 µM,"Cc1nnc(-c2ccccc2C(=O)N[C@H]2CCC[C@]2(C)Nc2cnc(C(F)(F)F)cn2)o1 [Example 160, 2-(5-Methyl-1,3,4-oxadiazol-2-yl)-N-[(1S,2S)-2-methyl-2-{[5-(trifluoromethyl)pyrazin-2-yl]amino}cyclopentyl]benzamide]"

# The next lines start with the compound.
Compound,IC50 (human orexin receptor 1),IC50 (human orexin receptor 2)
"CC1(Nc2ncc(C(F)(F)F)cc2F)CCCC1NC(=O)c1ncccc1-c1ncccn1 (stereo not shown) [Example 146, N-(2-{[3-Fluoro-5-(trifluoromethyl)pyridin-2-yl]amino}-2-methylcyclopentyl)-3-(pyrimidin-2-yl)pyridine-2-carboxamide]",0.007 µM,> 10 µM
"O=C(N[C@H]1CCC[C@@H]1Nc1ncc(C(F)(F)F)cc1F)c1ncccc1-c1ncccn1 [Example 147, N-[(1S,2S)-2-{[3-Fluoro-5-(trifluoromethyl)pyridin-2-yl]amino}cyclopentyl]-3-(pyrimidin-2-yl)pyridine-2-carboxamide]",0.024 µM,> 10 µM
"O=C(N[C@H]1CCC[C@@H]1Nc1ncc(C(F)(F)F)cc1Cl)c1ncccc1-c1ncccn1 [Example 148, N-[(1S,2S)-2-{[3-Chloro-5-(trifluoromethyl)pyridin-2-yl]amino}cyclopentyl]-3-(pyrimidin-2-yl)pyridine-2-carboxamide]",0.019 µM,> 10 µM
"CCc1nc(C(F)(F)F)cnc1N[C@H]1CCC[C@@H]1NC(=O)c1ccccc1-c1nc(C)no1 [Example 149, N-[(1S,2S)-2-{[3-Ethyl-5-(trifluoromethyl)pyrazin-2-yl]amino}cyclopentyl]-2-(3-methyl-1,2,4-oxadiazol-5-yl)benzamide]",0.025 µM,> 10 µM
"CCc1nc(C(F)(F)F)cnc1N[C@H]1CCC[C@@H]1NC(=O)c1ncccc1-c1ncccn1 [Example 150, N-[(1S,2S)-2-{[3-Ethyl-5-(trifluoromethyl)pyrazin-2-yl]amino}cyclopentyl]-3-(pyrimidin-2-yl)pyridine-2-carboxamide]",0.043 µM,> 10 µM
"CC1(Nc2ncc(C(F)(F)F)cn2)CCCC1NC(=O)c1ncccc1-n1nccn1 (stereo not shown) [Example 154, N-(2-Methyl-2-{[5-(trifluoromethyl)pyrimidin-2-yl]amino}cyclopentyl)-3-(2H-1,2,3-triazol-2-yl)pyridine-2-carboxamide]",0.042 µM,> 10 µM
